{"source": "ChEMBL document CHEMBL5506000", "about": "“Design, synthesis and antibacterial evaluation of low toxicity amphiphilic-cephalosporin derivatives” (Eur J Med Chem, 2024)", "key": {"Enterococcus faecalis": {"tested_on": "Enterococcus faecalis", "assay": "Antibacterial activity against Enterococcus faecalis ATCC 29212 by CLSI protocol based assay", "assay_type": "functional"}, "Staphylococcus aureus": {"tested_on": "Staphylococcus aureus", "assay": "Antibacterial activity against Staphylococcus aureus ATCC 29213 by CLSI protocol based assay", "assay_type": "functional"}, "[1]": {"assay": "Hemolytic activity in sheep RBC", "assay_type": "toxicity, cell-based, Ovis aries, Erythrocyte", "conditions": "sheep red blood cells (erythrocytes)"}, "Escherichia coli": {"tested_on": "Escherichia coli", "assay": "Antibacterial activity against Escherichia coli ATCC 25922 by CLSI protocol based assay", "assay_type": "functional"}, "[2]": {"tested_on": "Stenotrophomonas maltophilia", "assay": "Antibacterial activity against Stenotrophomonas maltophilia ATCC 17808 by CLSI protocol based assay", "assay_type": "functional"}}, "data": [{"smiles": "CCCCCCCCCCNC(=O)c1cc[n+](CC2=C(C(=O)[O-])N3C(=O)[C@@H](NC(=O)/C(=N\\OC)c4csc(N)n4)[C@H]3SC2)cc1.O=C(O)C(F)(F)F", "values": [{"measurement": "MIC", "setting": "Enterococcus faecalis", "result": 4, "unit": "µg/mL"}, {"measurement": "MIC", "setting": "Staphylococcus aureus", "result": 1, "unit": "µg/mL"}, {"measurement": "HC50", "setting": "[1]", "result": "> 1280", "unit": "µg/mL"}, {"measurement": "MIC", "setting": "Escherichia coli", "result": 8, "unit": "µg/mL"}, {"measurement": "MIC", "setting": "[2]", "result": 8, "unit": "µg/mL"}]}, {"smiles": "CCCCCCCCCCNC(=O)c1cc[n+](CC2=C(C(=O)[O-])N3C(=O)[C@@H](NC(=O)/C(=N\\OC(C)(C)C(=O)O)c4csc(N)n4)[C@H]3SC2)cc1.O=C(O)C(F)(F)F", "values": [{"measurement": "MIC", "setting": "Enterococcus faecalis", "result": "> 128", "unit": "µg/mL"}, {"measurement": "MIC", "setting": "Staphylococcus aureus", "result": 32, "unit": "µg/mL"}, {"measurement": "HC50", "setting": "[1]", "result": "> 1280", "unit": "µg/mL"}, {"measurement": "MIC", "setting": "Escherichia coli", "result": 64, "unit": "µg/mL"}, {"measurement": "MIC", "setting": "[2]", "result": 128, "unit": "µg/mL"}]}, {"smiles": "CCCCNC(=O)c1ccc[n+](CC2=C(C(=O)[O-])N3C(=O)[C@@H](NC(=O)/C(=N\\OC(C)(C)C(=O)O)c4csc(N)n4)[C@H]3SC2)c1.O=C(O)C(F)(F)F", "values": [{"measurement": "MIC", "setting": "Enterococcus faecalis", "result": 128, "unit": "µg/mL"}, {"measurement": "MIC", "setting": "Staphylococcus aureus", "result": 32, "unit": "µg/mL"}, {"measurement": "HC50", "setting": "[1]", "result": "> 1280", "unit": "µg/mL"}, {"measurement": "MIC", "setting": "Escherichia coli", "result": 1, "unit": "µg/mL"}, {"measurement": "MIC", "setting": "[2]", "result": 0.5, "unit": "µg/mL"}]}, {"smiles": "CCCCCCCCCCNC(=O)c1ccc[n+](CC2=C(C(=O)[O-])N3C(=O)[C@@H](NC(=O)/C(=N\\OC(C)(C)C(=O)O)c4csc(N)n4)[C@H]3SC2)c1.O=C(O)C(F)(F)F", "values": [{"measurement": "MIC", "setting": "Enterococcus faecalis", "result": 128, "unit": "µg/mL"}, {"measurement": "MIC", "setting": "Staphylococcus aureus", "result": 32, "unit": "µg/mL"}, {"measurement": "HC50", "setting": "[1]", "result": "> 1280", "unit": "µg/mL"}, {"measurement": "MIC", "setting": "Escherichia coli", "result": 32, "unit": "µg/mL"}, {"measurement": "MIC", "setting": "[2]", "result": 64, "unit": "µg/mL"}]}, {"smiles": "CCCCCCNC(=O)c1cc[n+](CC2=C(C(=O)[O-])N3C(=O)[C@@H](NC(=O)/C(=N\\OC)c4csc(N)n4)[C@H]3SC2)cc1.O=C(O)C(F)(F)F", "values": [{"measurement": "MIC", "setting": "Enterococcus faecalis", "result": 4, "unit": "µg/mL"}, {"measurement": "MIC", "setting": "Staphylococcus aureus", "result": 2, "unit": "µg/mL"}, {"measurement": "HC50", "setting": "[1]", "result": "> 1280", "unit": "µg/mL"}, {"measurement": "MIC", "setting": "Escherichia coli", "result": 2, "unit": "µg/mL"}, {"measurement": "MIC", "setting": "[2]", "result": 2, "unit": "µg/mL"}]}, {"smiles": "CCCCNC(=O)c1cc[n+](CC2=C(C(=O)[O-])N3C(=O)[C@@H](NC(=O)/C(=N\\OC)c4csc(N)n4)[C@H]3SC2)cc1.O=C(O)C(F)(F)F", "values": [{"measurement": "MIC", "setting": "Enterococcus faecalis", "result": 4, "unit": "µg/mL"}, {"measurement": "MIC", "setting": "Staphylococcus aureus", "result": 4, "unit": "µg/mL"}, {"measurement": "HC50", "setting": "[1]", "result": "> 1280", "unit": "µg/mL"}, {"measurement": "MIC", "setting": "Escherichia coli", "result": 1, "unit": "µg/mL"}, {"measurement": "MIC", "setting": "[2]", "result": 1, "unit": "µg/mL"}]}, {"smiles": "CC(C)(O/N=C(\\C(=O)N[C@@H]1C(=O)N2C(C(=O)[O-])=C(C[n+]3ccccc3)CS[C@H]12)c1csc(N)n1)C(=O)O", "note": "[CEFTAZIDIME]", "values": [{"measurement": "MIC", "setting": "Enterococcus faecalis", "result": 128, "unit": "µg/mL"}, {"measurement": "MIC", "setting": "Staphylococcus aureus", "result": 16, "unit": "µg/mL"}, {"measurement": "HC50", "setting": "[1]", "result": "> 1280", "unit": "µg/mL"}, {"measurement": "MIC", "setting": "Escherichia coli", "result": 0.063, "unit": "µg/mL"}, {"measurement": "MIC", "setting": "[2]", "result": 0.063, "unit": "µg/mL"}]}, {"smiles": "CCCCCCCCNC(=O)c1cc[n+](CC2=C(C(=O)[O-])N3C(=O)[C@@H](NC(=O)/C(=N\\OC(C)(C)C(=O)O)c4csc(N)n4)[C@H]3SC2)cc1.O=C(O)C(F)(F)F", "values": [{"measurement": "MIC", "setting": "Enterococcus faecalis", "result": "> 128", "unit": "µg/mL"}, {"measurement": "MIC", "setting": "Staphylococcus aureus", "result": 32, "unit": "µg/mL"}, {"measurement": "HC50", "setting": "[1]", "result": "> 1280", "unit": "µg/mL"}, {"measurement": "MIC", "setting": "Escherichia coli", "result": 32, "unit": "µg/mL"}, {"measurement": "MIC", "setting": "[2]", "result": 64, "unit": "µg/mL"}]}, {"smiles": "CCCCNC(=O)c1ccc[n+](CC2=C(C(=O)[O-])N3C(=O)[C@@H](NC(=O)/C(=N\\OC)c4csc(N)n4)[C@H]3SC2)c1.O=C(O)C(F)(F)F", "values": [{"measurement": "MIC", "setting": "Enterococcus faecalis", "result": 4, "unit": "µg/mL"}, {"measurement": "MIC", "setting": "Staphylococcus aureus", "result": 2, "unit": "µg/mL"}, {"measurement": "HC50", "setting": "[1]", "result": "> 1280", "unit": "µg/mL"}, {"measurement": "MIC", "setting": "Escherichia coli", "result": 0.5, "unit": "µg/mL"}, {"measurement": "MIC", "setting": "[2]", "result": 0.5, "unit": "µg/mL"}]}, {"smiles": "CCCCNC(=O)c1cc[n+](CC2=C(C(=O)[O-])N3C(=O)[C@@H](NC(=O)/C(=N\\OC(C)(C)C(=O)O)c4csc(N)n4)[C@H]3SC2)cc1.O=C(O)C(F)(F)F", "values": [{"measurement": "MIC", "setting": "Enterococcus faecalis", "result": 128, "unit": "µg/mL"}, {"measurement": "MIC", "setting": "Staphylococcus aureus", "result": 64, "unit": "µg/mL"}, {"measurement": "HC50", "setting": "[1]", "result": "> 1280", "unit": "µg/mL"}, {"measurement": "MIC", "setting": "Escherichia coli", "result": 4, "unit": "µg/mL"}, {"measurement": "MIC", "setting": "[2]", "result": 1, "unit": "µg/mL"}]}, {"smiles": "CCCCCCNC(=O)c1ccc[n+](CC2=C(C(=O)[O-])N3C(=O)[C@@H](NC(=O)/C(=N\\OC(C)(C)C(=O)O)c4csc(N)n4)[C@H]3SC2)c1.O=C(O)C(F)(F)F", "values": [{"measurement": "MIC", "setting": "Enterococcus faecalis", "result": 128, "unit": "µg/mL"}, {"measurement": "MIC", "setting": "Staphylococcus aureus", "result": 32, "unit": "µg/mL"}, {"measurement": "HC50", "setting": "[1]", "result": "> 1280", "unit": "µg/mL"}, {"measurement": "MIC", "setting": "Escherichia coli", "result": 4, "unit": "µg/mL"}, {"measurement": "MIC", "setting": "[2]", "result": 4, "unit": "µg/mL"}]}, {"smiles": "CCCCCCCCNC(=O)c1cc[n+](CC2=C(C(=O)O)N3C(=O)[C@@H](NC(=O)/C(=N\\OC)c4csc(N)n4)[C@H]3SC2)cc1.O=C([O-])C(F)(F)F", "values": [{"measurement": "MIC", "setting": "Enterococcus faecalis", "result": 2, "unit": "µg/mL"}, {"measurement": "MIC", "setting": "Staphylococcus aureus", "result": 1, "unit": "µg/mL"}, {"measurement": "HC50", "setting": "[1]", "result": "> 1280", "unit": "µg/mL"}, {"measurement": "MIC", "setting": "Escherichia coli", "result": 8, "unit": "µg/mL"}, {"measurement": "MIC", "setting": "[2]", "result": 4, "unit": "µg/mL"}]}, {"smiles": "CCCCCCNC(=O)c1cc[n+](CC2=C(C(=O)[O-])N3C(=O)[C@@H](NC(=O)/C(=N\\OC(C)(C)C(=O)O)c4csc(N)n4)[C@H]3SC2)cc1.O=C(O)C(F)(F)F", "values": [{"measurement": "MIC", "setting": "Enterococcus faecalis", "result": 64, "unit": "µg/mL"}, {"measurement": "MIC", "setting": "Staphylococcus aureus", "result": 32, "unit": "µg/mL"}, {"measurement": "HC50", "setting": "[1]", "result": "> 1280", "unit": "µg/mL"}, {"measurement": "MIC", "setting": "Escherichia coli", "result": 32, "unit": "µg/mL"}, {"measurement": "MIC", "setting": "[2]", "result": 8, "unit": "µg/mL"}]}, {"smiles": "C[C@@H](O)[C@H]1C(=O)N2C(C(=O)O)=C(S[C@@H]3CN[C@H](C(=O)N(C)C)C3)[C@H](C)[C@H]12", "note": "[MEROPENEM]", "values": [{"measurement": "HC50", "setting": "[1]", "result": "> 1280", "unit": "µg/mL"}, {"measurement": "MIC", "setting": "Escherichia coli", "result": 0.031, "unit": "µg/mL"}, {"measurement": "MIC", "setting": "[2]", "result": 0.031, "unit": "µg/mL"}]}]}
